# Reference: US20160115225A1, “Methods of Reducing Methylglyoxal (MGO) Modification of Recombinant Proteins in Cell Culture” (AbbVie Inc., priority 2014, published 2016)
# Key:
# [1] = system: adalimumab producing cell line 1; assay: Lys-C peptide mapping for MGO modification of adalimumab, cell line 1; type: cell-based; details: Example 3
# Text: Typical trypsin digestion for peptide mapping cleaves a denatured, reduced and alkylated protein at the carboxyl side of the two basic amino acids, lysine and arginine. Methylglyoxal (MGO) is a small molecule metabolite derived as a glycolysis byproduct which can modify arginine residues. A modification of an arginine prevents trypsin from cutting this site and results in a mis-cleavage. The challenge of quantifying the amount of MGO modified peptide is that, it is not compared to an equivalent non-modified peptide but rather to two parental cleaved peptides. The two parental cleaved peptides likely have different ionization potential as compared to that of the modified peptide. In order to determine a truly accurate direct measurement of an MGO-modified peptide, it is compared to its non-modified counterpart and expressed as a percentage. Using endoproteinase lysine-C as an alternative enzyme, cleavages only occur at lysine residues. The result is a direct comparison of the same peptide with and without an MGO modification, which provides a high degree of accuracy in quantifying even trace levels of the modified species.
# Procedure: Samples were dilated to a nominal concentration of 4 mg/mL. 8 M guanidine-HCl was added to the sample in a 3:1 ratio resulting in a 1 mg/mL concentration in 6M guanidine-HCl. […] Samples were analyzed by LC/MS peptide mapping. […] Eluting peaks were monitored using a Thermo Scientific LTQ-Orbitrap Mass Spectrometer. Specific mass traces were extracted for both modified and non-modified peptides in order to accurately quantify the total amount of MGO modification at each site. Mass spectra were also analyzed for the specific region of the chromatogram to confirm the peptide identity.
# (§1) The cells were grown to maximum viable cell densities (VCD) in the range of 10-14×10^6 cells/ml for the different conditions tested. […] Samples were subsequently analyzed using Poros A for titer and WCX-10 post protein A purification. Based on the WCX-10 chromatograms, the percentages of total peak(s) area corresponding to the acidic species were quantified. […]
# [2] = system: adalimumab producing cell line 1; assay: Cell growth, viability and titer, bioreactor culture, cell line 1; type: cell-based; details: Example 2; 2DDG 0.25 g/l; versus control
# Protocol: For the bioreactor (3 L Applikon) experiments (Examples 1, 2 and 3), 3 L, bioreactors (1.5 L working volume) were initiated at 35° C. (cell line 1) and 36° C. (cell line 2), 30% DO, 200 rpm, pH of 7.1. In some of the conditions, pH was ramped down to 6.8 in three days and kept at pH 6.8 thereafter. The inclusion of pH ramp for a particular condition is indicated by the final pH in the experimental design. If the final pH is 7.1, then it indicates no pH ramp was performed, whereas if the final pH is 6.8, a pH ramp was performed on day 3 from pH 7.1 to pH 6.8. In some of the conditions, a temperature shift was performed. When temperature shift was performed, the temperature was lowered to 33° C. Again, the conditions where such a temperature shift was performed can be identified from the final temperature in the experimental design. Cultures were run in extended batch mode with the addition of a desired amount of 40% glucose stock solution was fed based on glucose measurements. […]
# as §1
compound,measurement,setting,value
"O=CC[C@@H](O)[C@H](O)[C@H](O)CO [Test 2DDG, 2-Deoxy-D-Glucose]",MGO modification,"[1]; 2DDG 0.25 g/l alone, day 11 harvest, control 32.01%",18.03%
same,MGO modification,[1]; 2DDG and temperature shift combined with arginine supplementation and/or lower pH,substantial reduction
same,MGO protein modification,"[1]; 2DDG, temperature shift, lower pH and arginine supplementation all combined, day 11 harvest, control 32.01%",0.02%
same,cell growth and viability profile,[2],slight increase
